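The compound was tested at five concentrations on cells cultured in 96-well plates, with a 48-hour exposure period. GI50 is the concentration that inhibits growth by half.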 Calls of active or inactive are those of the source. Cut-off read from the data, not from the text of the source: active = GI50 up to about 1.1 µM and inactive = higher. Square brackets hold non-standard residues; d marks the D form. Peptide text beside a SMILES is read from it. * marks the point of attachment. ξ: configuration not given here. NMeN = CN[C@@H](CC(N)=O)C(=O)O; NMeV = CN[C@H](C(=O)O)C(C)C; ξNMeV = CNC(C(=O)O)C(C)C; Boc = CC(C)(C)OC(=O)*; ξNMeA = CNC(C)C(=O)O
What was measured:
Experiment in all cases: NCI tumour cell line growth inhibition, 48 h
A498 = test system: A498
NCI/ADR-RES = test system: NCI/ADR-RES
COLO 205 = test system: COLO 205
A549 = test system: A549
T47D = test system: T47D
UO-31 = test system: UO-31
HCT-15 = test system: HCT-15
CAKI-1 = test system: CAKI-1
SF-295 = test system: SF-295
SF-539 = test system: SF-539
SF-268 = test system: SF-268
EKVX = test system: EKVX
SNB-75 = test system: SNB-75
MDA-MB-231 = test system: MDA-MB-231
NCI-H226 = test system: NCI-H226
SNB-19 = test system: SNB-19
Malme-3M = test system: Malme-3M
UACC-62 = test system: UACC-62
OVCAR-4 = test system: OVCAR-4
SR = test system: SR

Row | SMILES | GI50 (A498) | GI50 (NCI/ADR-RES) | GI50 (COLO 205) | GI50 (A549) | GI50 (T47D) | GI50 (UO-31) | GI50 (HCT-15) [µM] | GI50 (CAKI-1) | GI50 (SF-295) | GI50 (SF-539) | GI50 (SF-268) | GI50 (EKVX) | GI50 (SNB-75) | GI50 (MDA-MB-231) | GI50 (NCI-H226) | GI50 (SNB-19) | GI50 (Malme-3M) | GI50 (UACC-62) | GI50 (OVCAR-4) | GI50 (SR)
1 | COC(=O)C(C)N(C)C(=O)[C@H](CC(N)=O)N(C)C(=O)[C@@H]1CCCN1C(=O)[C@H](C(C)C)N(C)C(=O)C(C(C)C)N(C)C(=O)[C@@H](NC(=O)OC(C)(C)C)C(C)C (stereo not given in full) (Boc-V[ξNMeV][NMeV]P[NMeN][ξNMeA]-OMe) | > 50 µM (inactive) | > 50 µM (inactive) | > 50 µM (inactive) | 37.5 µM (inactive) | > 50 µM (inactive) | 24.7 µM (inactive) | > 100 | > 50 µM (inactive) | > 50 µM (inactive) | > 50 µM (inactive) | > 100 µM (inactive) | > 50 µM (inactive) | > 100 µM (inactive) | > 50 µM (inactive) | > 50 µM (inactive) | > 50 µM (inactive) | > 100 µM (inactive) | > 50 µM (inactive) | > 100 µM (inactive) | > 100 µM (inactive)
2 | CC1(COS(=O)(=O)OCC2(C)COS(=O)(=O)OC2)COS(=O)(=O)OC1 | > 45.8 µM (inactive) | > 48.3 µM (inactive) | > 51.6 µM (inactive) | > 28.8 µM (inactive) | > 20.9 µM (inactive) | > 41.2 µM (inactive) | > 35.7 | > 100 µM (inactive) | > 100 µM (inactive) | > 100 µM (inactive) | > 100 µM (inactive) | > 71.1 µM (inactive) | > 100 µM (inactive) | > 73.6 µM (inactive) | > 41.5 µM (inactive) | > 60.7 µM (inactive) | > 83 µM (inactive) | > 61.8 µM (inactive) | > 60.8 µM (inactive) | > 24.9 µM (inactive)
3 | OCCc1ccsc1-c1sc(-c2cc(CCO)c(-c3sc(-c4cc(CCO)c(-c5sccc5CCO)s4)cc3CCO)s2)cc1CCO | 2 µM (inactive) | 1.86 µM (inactive) | 1.54 µM (inactive) | 0.656 µM (active) | 1.3 µM (inactive) | 1.29 µM (inactive) | 1.03 | 1.48 µM (inactive) | 1.29 µM (inactive) | 1.44 µM (inactive) | 0.881 µM (active) | 1.26 µM (inactive) | 1.27 µM (inactive) | 2.83 µM (inactive) | 1.65 µM (inactive) | 1.7 µM (inactive) | 1.14 µM (inactive) | 1.56 µM (inactive) | 1.16 µM (inactive) | 0.684 µM (active)
4 | O/N=C1/COC(C(F)(F)F)(C(F)(F)F)C1 | > 100 µM (inactive) | > 100 µM (inactive) | > 100 µM (inactive) | > 100 µM (inactive) | > 100 µM (inactive) | > 100 µM (inactive) | > 100 | > 100 µM (inactive) | > 100 µM (inactive) | > 100 µM (inactive) | > 100 µM (inactive) | > 100 µM (inactive) | > 100 µM (inactive) | > 100 µM (inactive) | > 100 µM (inactive) | > 100 µM (inactive) | > 100 µM (inactive) | > 100 µM (inactive) | > 100 µM (inactive) | 0.0573 µM (active)
5 | Cc1c(-c2ccccc2)c(C#N)c2nnn(-c3ccccc3)c(=O)n12 | 65.8 µM (inactive) | > 100 µM (inactive) | 54.1 µM (inactive) | 97.9 µM (inactive) | 33 µM (inactive) | > 100 µM (inactive) | 36 | > 100 µM (inactive) | 43.7 µM (inactive) | > 100 µM (inactive) | > 100 µM (inactive) | > 100 µM (inactive) | > 100 µM (inactive) | > 100 µM (inactive) | > 100 µM (inactive) | > 100 µM (inactive) | 97.9 µM (inactive) | 92.5 µM (inactive) | > 100 µM (inactive) | 33.8 µM (inactive)
6 | CC(C)=CCC[C@@H](C)C1=C(N)C(=O)C(C)=C(O)C1=O | 29.9 µM (inactive) | 8.28 µM (inactive) | 29.2 µM (inactive) | 32.6 µM (inactive) | 42.9 µM (inactive) | 36 µM (inactive) | 23.3 | 35.2 µM (inactive) | 32.1 µM (inactive) | 41.7 µM (inactive) | 27.4 µM (inactive) | 30.6 µM (inactive) | 40.6 µM (inactive) | 67.5 µM (inactive) | 27.5 µM (inactive) | 60.7 µM (inactive) | 56.9 µM (inactive) | 31.1 µM (inactive) | 35.7 µM (inactive) | 26.3 µM (inactive)
7 | Cc1ccc(S(=O)(=O)N2CCN(S(=O)(=O)c3ccc(C)cc3)CCN(S(=O)(=O)c3ccc(C)cc3)Cc3cc(C#N)c(C#N)cc3CN(S(=O)(=O)c3ccc(C)cc3)CC2)cc1 | 20.7 µM (inactive) | > 100 µM (inactive) | > 100 µM (inactive) | > 100 µM (inactive) | > 100 µM (inactive) | > 100 µM (inactive) | > 100 | > 100 µM (inactive) | > 100 µM (inactive) | > 100 µM (inactive) | > 100 µM (inactive) | > 100 µM (inactive) | 19.1 µM (inactive) | 31 µM (inactive) | 56.2 µM (inactive) | 51.1 µM (inactive) | 52.4 µM (inactive) | > 100 µM (inactive) | > 100 µM (inactive) | > 100 µM (inactive)
8 | NCCCN1CCN(CC(=O)O)CCN(CCCN)CCN(CC(=O)O)CC1 | > 100 µM (inactive) | > 100 µM (inactive) | 33.7 µM (inactive) | 5.52 µM (inactive) | > 100 µM (inactive) | > 34.3 µM (inactive) | 43.8 | > 100 µM (inactive) | > 93.3 µM (inactive) | 68.1 µM (inactive) | > 100 µM (inactive) | > 77.6 µM (inactive) | > 100 µM (inactive) | > 100 µM (inactive) | > 100 µM (inactive) | > 100 µM (inactive) | 25.5 µM (inactive) | > 56.9 µM (inactive) | > 100 µM (inactive) | > 26.9 µM (inactive)
9 | CC(C)C1OCC(CO)CO1 (stereo not given) | > 100 µM (inactive) | > 100 µM (inactive) | > 100 µM (inactive) | > 100 µM (inactive) | > 100 µM (inactive) | > 100 µM (inactive) | > 100 | > 100 µM (inactive) | > 100 µM (inactive) | > 100 µM (inactive) | > 100 µM (inactive) | > 100 µM (inactive) | > 100 µM (inactive) | > 100 µM (inactive) | > 100 µM (inactive) | > 100 µM (inactive) | > 100 µM (inactive) | > 100 µM (inactive) | > 100 µM (inactive) | > 100 µM (inactive)
10 | O=C1CCCn2c(nc3ccccc32)N1 | > 100 µM (inactive) | > 100 µM (inactive) | > 100 µM (inactive) | > 100 µM (inactive) | > 100 µM (inactive) | > 100 µM (inactive) | > 100 | > 100 µM (inactive) | > 100 µM (inactive) | > 100 µM (inactive) | > 100 µM (inactive) | > 100 µM (inactive) | > 100 µM (inactive) | > 100 µM (inactive) | > 100 µM (inactive) | > 100 µM (inactive) | > 100 µM (inactive) | > 100 µM (inactive) | > 100 µM (inactive) | > 100 µM (inactive)
11 | O=C1Nc2ccccc2/C1=N/NC(=S)N1CCCC1 | 2.95 µM (inactive) | 0.361 µM (active) | 1.44 µM (inactive) | 0.736 µM (active) | 6.25 µM (inactive) | 0.632 µM (active) | 0.281 | 2.15 µM (inactive) | 0.662 µM (active) | 1.08 µM (active) | 9.93 µM (inactive) | 2.37 µM (inactive) | 3.45 µM (inactive) | 6.58 µM (inactive) | 0.247 µM (active) | 1.15 µM (inactive) | 0.889 µM (active) | 1.32 µM (inactive) | 1.01 µM (active) | 0.291 µM (active)
12 | C[n+]1c(/C=C/c2ccc(O)c3ncccc23)[se]c2ccccc21 | 11.2 µM (inactive) | 3.48 µM (inactive) | 5.58 µM (inactive) | 7.06 µM (inactive) | 3.2 µM (inactive) | 2.71 µM (inactive) | 0.631 | 5.01 µM (inactive) | 8.57 µM (inactive) | 2.86 µM (inactive) | 4.91 µM (inactive) | 4.25 µM (inactive) | 12.1 µM (inactive) | 0.406 µM (active) | 11.5 µM (inactive) | 4.5 µM (inactive) | 4.01 µM (inactive) | 3.14 µM (inactive) | 4.2 µM (inactive) | 1.64 µM (inactive)
13 | C=C1C(=O)OC2/C=C(/C)C3(O)OC(C)(CC(OC(=O)C(C)C)C12)CC3OC(C)=O (stereo not given) | 3.96 µM (inactive) | 11.9 µM (inactive) | 3.84 µM (inactive) | 10.8 µM (inactive) | 13 µM (inactive) | 6.17 µM (inactive) | 4.45 | 2.48 µM (inactive) | 9.75 µM (inactive) | 3.05 µM (inactive) | 22.6 µM (inactive) | 10.6 µM (inactive) | 47.5 µM (inactive) | 12.5 µM (inactive) | 35.5 µM (inactive) | 15.3 µM (inactive) | 9.91 µM (inactive) | 11 µM (inactive) | 13.2 µM (inactive) | 2.52 µM (inactive)
14 | Cc1noc2nnn(-c3ccc(Cl)cc3)c(=O)c12 | 13.5 µM (inactive) | 4.17 µM (inactive) | 2.96 µM (inactive) | 12.1 µM (inactive) | 0.614 µM (active) | 3.61 µM (inactive) | 2.31 | 2.05 µM (inactive) | 12.3 µM (inactive) | 0.223 µM (active) | 6.98 µM (inactive) | 7.11 µM (inactive) | 1.1 µM (active) | 8.95 µM (inactive) | 2.61 µM (inactive) | 13.3 µM (inactive) | 11.9 µM (inactive) | 4.43 µM (inactive) | 3.18 µM (inactive) | 1.21 µM (inactive)

Source: ChEMBL document CHEMBL1201862, “PubChem BioAssay data set” (2004)
